According to PubChem BioAssay AID1259407 (Chemical Carcinogenesis Research Information System (CCRIS), 2018):
Calls of active or inactive are those of the source. No rule for the calls is given here.

Tested on: CCRIS mutagenicity, Ames/micronucleus/aberration tests
Experiment: CCRIS mutagenicity studies
Conditions: Method: STANDARD PLATE

Which mutagenic call (Test System: CHINESE HAMSTER V-79, Strain/Indicator: V-79/6-THIOGUANINE, Metabolic Activation: NONE) does the source give for [S]=[Pb] here?
Its mutagenic call is “active; positive”.

What does the source list for COP(=S)(NC(C)C)Oc1ccccc1C(=O)OC(C)C (stereo unspecified)?
mutagenic call (Test System: AMES SALMONELLA TYPHIMURIUM, Strain/Indicator: TA98, Metabolic Activation: NONE): inactive; negative; mutagenic call (Test System: AMES SALMONELLA TYPHIMURIUM, Strain/Indicator: TA98, Metabolic Activation: RAT, LIVER, S-9, PCB): inactive; negative; mutagenic call (Test System: AMES SALMONELLA TYPHIMURIUM, Strain/Indicator: TA100, Metabolic Activation: NONE): inactive; negative; mutagenic call (Test System: AMES SALMONELLA TYPHIMURIUM, Strain/Indicator: TA100, Metabolic Activation: RAT, LIVER, S-9, PCB): inactive; negative

Which mutagenic call (Test System: CHINESE HAMSTER V-79, Strain/Indicator: V-79/8-AZAGUANINE, Metabolic Activation: NONE) does the source give for O[C@@H]1c2cccc3ccc4cc5ccccc5c(c4c23)[C@H]1O here?
Its mutagenic call is “active; positive”.
